Laboratory results from patent US7129198B1, “Use of benzotriazole UV absorbers” (Ciba Specialty Chemicals Corporation, priority 1999, dated 2006).

Tests used:
Assay in all cases: MIC in microtitre plates
Format in all cases: cell-based
[1] = tested on: Candida albicans ATCC 10259; settings: ATCC10259, 48 hours at 37° C., ≦20% growth
Description: (§1) Mycological slant agar for the preculture of moulds. The test substances are predissolved in dimethyl sulfoxide (DMSO) and tested in a dilution series of 1:2. The test organisms are cultured overnight in CASO bouillon and rinsed off with 10 ml of 0.85% sodium chloride solution (+0.1% TritonX-100). The test organisms are adjusted to an organism count of 1–5×10^6 CFU/ml with 0.85% sodium chloride solution. The test substances are prepipetted into microtitre plates in an amount of 8 μl per well. Previously diluted organism suspensions are diluted 1:100 in CASO bouillon and added to the test substances in an amount of 192 μl per well. The test batches are incubated for 48 hours at 37° C. After incubation, the growth is determined by reference to the turbidity of the test batches (optical density) at 620 nm in a microplate reader. The minimum inhibitory concentration (MIC value) is the concentration of substance at which (compared with the growth of the control) an appreciable inhibition of the growth (≦20% growth) of the test organisms is ascertained. One microtitre plate is used for each test organism and substance concentration. All substances are tested in duplicate.

[2] = tested on: Corynebacterium xerosis ATCC 373; settings: ATCC373, 48 hours at 37° C., ≦20% growth
Description: as §1

[3] = tested on: Enterococcus hirae ATCC 10541; settings: ATCC10541, 48 hours at 37° C., ≦20% growth
Description: as §1

[4] = tested on: Epidermophyton floccosum DSM 10709; settings: DSM10709, 48 hours at 37° C., ≦20% growth
Description: as §1

[5] = tested on: Klebsiella pneumoniae ATCC 4352; settings: ATCC4352, 48 hours at 37° C., ≦20% growth
Description: as §1

[6] = tested on: Micrococcus luteus ATCC 9341; settings: ATCC9341, 48 hours at 37° C., ≦20% growth
Description: as §1

P. ovale ATCC 14521 = settings: Pityrosporum ovale, ATCC14521, 48 hours at 37° C., ≦20% growth
Description: as §1

[7] = tested on: S. epidermidis ATCC 12228; settings: Staphylococcus epidermidis, ATCC12228, 48 hours at 37° C., ≦20% growth
Description: as §1

[8] = tested on: Salmonella choleraesuis ATCC 9184; settings: Salmonella enterica, 48 hours at 37° C., ≦20% growth
Description: as §1

[9] = tested on: Streptococcus mutans ATCC 25175; settings: ATCC25175, 48 hours at 37° C., ≦20% growth
Description: as §1

[10] = tested on: Trichoderma longibrachiatum DSM 768; settings: DSM768, 48 hours at 37° C., ≦20% growth
Description: as §1

[11] = tested on: Trichophyton mentagrophytes ATCC 9533; settings: ATCC9533, 48 hours at 37° C., ≦20% growth
Description: as §1

[12] = tested on: Trichophyton rubrum DSM 4167; settings: DSM4167, 48 hours at 37° C., ≦20% growth
Description: as §1

- MIC [1]: 6.25 µg/mL
- MIC [2]: 3.12 µg/mL
- MIC [3]: 3.12 µg/mL
- MIC [4]: 12.5 µg/mL
- MIC [5]: > 100 µg/mL
- MIC [6]: 3.12 µg/mL
- MIC (P. ovale ATCC 14521): > 25 µg/mL
- MIC [7]: 3.12 µg/mL
- MIC [9]: 3.12 µg/mL
- MIC [10]: 50 µg/mL
- MIC [11]: 100 µg/mL
- MIC [12]: 25 µg/mL
SMILES: CCCCCCCC[N+](CC)(CC)CCCNC(=O)CCc1cc(-n2nc3ccccc3n2)c(O)c(C(C)(C)C)c1.[Br-] [compound of formula (108)]
- MIC [8]: > 100 µg/mL
